In article PMC10072326, “Promising anticancer agents based on 8-hydroxyquinoline hydrazone copper(II) complexes” (Frontiers in Chemistry, 2023):

Key:
[1] = Thermodynamic solubility at pH 7.4; format: physicochemical; conditions: Cu(II) complexes; pH 7.40; 20 mM HEPES; 25.0°C
Protocol: Thermodynamic solubility (S) was measured for the new ligands, L^7 and L^8, since data for the rest of the series was previously reported (9), and for selected Cu(II) complexes: 1, 5 and 6. Solubility was measured for the saturated solutions in water at pH 7.40 in 20 mM HEPES at 25.0 ± 0.1 °C. The concentration was determined by UV-Vis spectrophotometry using the stock solutions of the compounds with known concentrations dissolved in 100% DMSO, 50% and 25% (v/v) DMSO/buffered aqueous solutions for the calibration.

A-375 cells = experiment: Sulforhodamine B (SRB) cell viability assay; format: cell-based; conditions: 72 h
Protocol: (§1) Copper compounds were tested, along with the free ligands and cisplatin as the positive control, for their cytotoxicity on both melanoma (A-375) and lung adenocarcinoma (A-549) cell lines in the concentration range 0.78–50 μM. Following 72 h of incubation, cell viability was measured via sulforhodamine B (SRB) assay (Supplementary Figure S25).
(§2) A-375 cells (ATCC, CRL-3222) were grown in Dulbecco’s Modified Eagle Medium with high glucose (Gibco #11965118) and A-549 (ATCC, CCL-185) cells were grown in Dulbecco’s Modified Eagle Medium F-12 (Gibco #11320033), supplemented with 10% FBS (Gibco, #10500064) and Penicillin-Streptomycin (10,000 U/mL, Gibco, #15140122). Cells were incubated at 37 °C, 5% CO2 incubator and subcultured every 3 days.
(§3) All the tested complexes were dissolved in DMSO (10 mM stock solution), and aliquots were stored at -20 °C, thawed on the experiment day and used only once. For SRB cell viability assay, A-375 and A-549 cells were seeded on 96-well plates (4×10^3 cells/well) and treated with serial dilutions of indicated compounds (with a concentration range of 0-50 μM, 72 h). Trichloroacetic acid (TCA) was added to wells for fixation at a final concentration of 10%, for 1 h at 4 °C. Each well was washed five times with ddH2O, dried, and incubated with 0.4% (w/v) SRB dye (50 µL/well) for 30 min at room temperature. The wells were washed with 1% acetic acid (v/v) five times, and 150 µL of 10 mM Tris solution was added to dissolve the stain. Colorimetric measurements were taken at λ = 564 nm. Viability percentage was calculated as follows: % Cell Viability = [100 × (sample Abs.-blank) / (non-treated control Abs.-blank)].

A-549 cells = experiment: Sulforhodamine B (SRB) cell viability assay; format: cell-based; conditions: 72 h
Protocol: as §1, §2, §3

[2] = target: bovine serum albumin (BSA) (Bos taurus, UniProt P02769); experiment: BSA fluorescence quenching; format: binding; design: Affinity constant K ± SD: unit not given here; conditions: fluorescence quenching; HypSpec2014; 1:1 species assumed
Sequence of bovine serum albumin (BSA) (P02769 25-607): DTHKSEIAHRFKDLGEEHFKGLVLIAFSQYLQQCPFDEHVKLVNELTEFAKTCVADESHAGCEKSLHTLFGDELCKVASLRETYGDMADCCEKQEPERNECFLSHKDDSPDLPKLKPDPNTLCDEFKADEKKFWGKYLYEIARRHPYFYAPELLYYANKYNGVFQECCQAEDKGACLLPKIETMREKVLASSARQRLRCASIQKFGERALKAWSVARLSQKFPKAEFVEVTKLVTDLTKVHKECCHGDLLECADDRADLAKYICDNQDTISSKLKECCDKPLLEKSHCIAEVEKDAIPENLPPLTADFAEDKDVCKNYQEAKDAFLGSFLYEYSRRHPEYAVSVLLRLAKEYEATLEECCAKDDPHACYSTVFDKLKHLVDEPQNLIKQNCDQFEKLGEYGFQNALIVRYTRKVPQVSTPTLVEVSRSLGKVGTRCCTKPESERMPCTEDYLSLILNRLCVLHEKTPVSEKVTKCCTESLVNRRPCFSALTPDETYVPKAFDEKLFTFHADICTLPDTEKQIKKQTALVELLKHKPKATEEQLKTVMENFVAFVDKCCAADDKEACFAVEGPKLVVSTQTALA
Protocol: To evaluate the interaction of the compounds, both organic and Cu(II) complexes, with bovine serum albumin (BSA) fluorescence spectra were measured. In a typical fluorescence experiment, to a solution of 1.5 μM of BSA in the same buffer, successive aliquots of a stock solution of each compound in DMSO were added directly to the cuvette (optical path 1.0 cm). The fluorescence emission was recorded between 310 and 600 nm with excitation at 295 nm. The final DMSO % was kept below 2% (v/v). The Stern-Volmer plots were built using the emission at 340 nm and blank samples (in the absence of BSA) with the same concentration of the complexes were recorded and subsequently subtracted from the corresponding emission spectra containing the fluorophore. Moreover, the fluorescence emission intensity was corrected for reabsorption and inner filter effects using UV-Vis absorption data recorded for each sample, since all complexes absorb in the measured wavelength range (19, 20).
The interaction of the organic compounds and Cu(II) complexes with BSA was monitored by studying the quenching of albumin’s fluorescence emission with increasing concentrations of the complexes (25). Overall, the intensity of the Trp emission decreases with the addition of the complexes, except for 8 (see Figs. S19). The Stern-Volmer relationship was used to analyse the fluorescence quenching process:
where I0 and I are the fluorescence intensities in the absence and in the presence of quencher, kq is the bimolecular quenching rate, τ0 is the fluorophore lifetime in the absence of the quencher (6.22 ns) (26) and [Q] is the quencher concentration. […] This linear relationship is obeyed for all complexes except 5, where a downward curvature is observed. This can be an indication of two distinct binding sites, corresponding to two populations of fluorophores, one being accessible and other inaccessible or buried inside the protein. In such cases, the Stern-Volmer relation can be modified to (27):
where ΔI = I0 – I, Ka is the Stern-Volmer constant for the accessible fraction and fa is the fraction of accessible fluorophore. […] As first approximation, the total concentration of quencher was used to check the quenching mechanism. […] As all systems presented high absorbance values in the measured range of wavelengths, no excess of quencher was used and, therefore, 1:1 species will be assumed for these interactions.

S. aureus MRSA 272123 = experiment: MIC determination; format: cell-based, Staphylococcus aureus; conditions: 18 h
Protocol: (§4) Wild-type Escherichia coli K-12 AG100 strain [argE3 thi-1 rpsL xyl mtl Δ(gal-uvrB) supE44] expressing the AcrAB TolC efflux pump at its basal level and Klebsiella pneumoniae ATCC 49619 Gram-negative strains were studied in the experiments. Sensitive (ATCC 25928) and the methicillin-resistant (MRSA 272123) subspecies of Staphylococcus aureus were used as Gram-positive strains in the assays.
(§5) Minimum inhibitory concentration (MIC) values of selected compounds were determined in 96-well plates based on the Clinical and Laboratory Standard Institute guidelines (CLSI guidelines). The stock solutions of the compounds were dissolved in DMSO using 1.3 μL of Mueller Hinton Broth, and then two-fold serial dilutions were performed. The starting concentration of the compounds was 100 μM. Then 10^‒4 dilution of an overnight bacterial culture in 100 μL of medium was added to each well, except for the medium control wells.

S. aureus ATCC 25928 = experiment: MIC determination; format: cell-based, Staphylococcus aureus; conditions: S. aureus ATCC 25928 (sensitive); 18 h
Protocol: as §4, §5

[3] = Cu(II) complex formation and stability constants by UV-Vis spectrophotometric titrations; format: physicochemical; conditions: physiological pH; 1 μM concentration
Protocol: The complex formation processes of L^1, L^5 and L^6 with Cu(II) ions were studied by UV-Vis spectrophotometry in 30% (v/v) DMSO/H2O using relatively low concentrations (c L = 50–60 μM), due to the limited water solubility of the ligand precursors as well as of the Cu(II) complexes (see thermodynamic solubility data in aqueous media in Table 2 and Table 3). L^1 was selected as the simplest compound of the studied ligand series, whereas L^5 and L^6 were selected to compare with the oxidovanadium(IV) system ([Ribeiro et al., 2022]). The solution stability and stoichiometry of the Cu(II) complexes were determined by the evaluation of the UV-Vis spectra recorded at various pH values (representative spectra are shown for the Cu(II) ‒ L^1 and Cu(II) ‒ L^6 systems in Figures 3A,B and for Cu(II) ‒ L^5 in Supplementary Figure S10A). The computed overall stability constants and pK a values of the complexes are collected in Table 3. The formation of only mono-ligand complexes was found with [Cu(LH)]^+, [Cu(L)], and [Cu(LH‒1)]^‒ (and [Cu(LH‒2)]^2‒ in the case of L^6) compositions, and their computed molar absorbance spectra are shown in Figures 3C, D, Supplementary Figure S10B.
An Agilent Cary 8454 diode array spectrophotometer was used to record the UV-Vis spectra in the range of 200–800 nm. Titrations were carried out with a Metrohm 665 Dosimat burette and an Orion 710A pH-meter equipped with a Metrohm combined electrode. A ionic strength of 0.10 M (KCl) was used to keep the activity coefficients constant. The titrations were performed with 0.10 M carbonate-free KOH solution in a 30% (v/v) DMSO/H2O solvent mixture. […] The average water ionization constant (pKw) is 14.53 ± 0.05 in the 30% (v/v) DMSO/H2O solvent mixture. The pKa values of the ligand precursors and the logβ values for the Cu(II) complexes were determined in 30% (v/v) DMSO/H2O in the same way as it was done in our previous publications (9, 11).
Spectrophotometric titrations were carried out on samples containing the ligands at 50 μM concentration, in the pH range from 2.0 to 11.5 in the absence or the presence of 1, 0.5 or 0.25 equiv. Cu(II) ions, using 10 cm^3 sample volumes. Proton dissociation constants (pKa) of the ligand precursors as well as stoichiometry and stability constants of the Cu(II) complexes (β) were calculated by the computer program PSEQUAD (12). The usual definition of overall (β) and stepwise (K) formation constants is used: […]

[4] = test system: Escherichia coli K-12 AG100; experiment: MIC determination; format: cell-based; conditions: E. coli; 18 h
Protocol: as §4, §5

[5] = test system: Klebsiella pneumoniae ATCC 49619; experiment: MIC determination; format: cell-based; conditions: K. pneumoniae; 18 h
Protocol: as §4, §5

| SMILES | thermodynamic solubility S 7.4 [1] | IC50 (A-375 cells) | IC50 (A-549 cells) | Affinity constant K ± SD [2] | MIC (S. aureus MRSA 272123) | MIC (S. aureus ATCC 25928) | level of dissociation of the complex [3] | MIC [4] | MIC [5] |
| --- | --- | --- | --- | --- | --- | --- | --- | --- | --- |
| O=C([N-]N=Cc1ccc2cccc([O-])c2n1)c1ccc(Cl)cc1.O=C([N-]N=Cc1ccc2cccc([O-])c2n1)c1ccc(Cl)cc1.O=C([N-]N=Cc1ccc2cccc([O-])c2n1)c1ccc(Cl)cc1.[Cu+2].[Cu+2].[Cu+2] [Complex 2, [Cu(L^2)]3] | < 1 µM | 6.5 ± 0.8 µM | 9.3 ± 0.4 µM | (8.3 ± 0.1) × 10^4 |  |  |  |  |  |
| CC(=O)[O-].Cc1ccc(C(=O)NN=Cc2ccc3cccc([O-])c3n2)cc1.[Cu+2] [Complex 4, [Cu(HL^4)(AcO)]] | 4.0 ± 0.2 µM | 2 ± 1.3 µM | 3.9 ± 0.6 µM | (3.2 ± 1.0) × 10^6 |  |  |  |  |  |
| O=C([N-]N=Cc1ccc2cccc([O-])c2n1)c1ccc(O)cc1.O=C([N-]N=Cc1ccc2cccc([O-])c2n1)c1ccc(O)cc1.O=C([N-]N=Cc1ccc2cccc([O-])c2n1)c1ccc(O)cc1.[Cu+2].[Cu+2].[Cu+2] [Complex 6, [Cu(L^6)]3] |  | 13.6 ± 0.9 µM | 16 ± 0.3 µM | (2.7 ± 0.8) × 10^5 | > 100 µM | > 100 µM | ca. 5% | > 100 µM | > 100 µM |
| [Cl][Cu][Cl] [CuCl2, reference compound] |  |  |  |  | > 100 µM | > 100 µM |  | > 100 µM | > 100 µM |
| N.N.[Cl][Pt][Cl] [cisplatin, reference compound] |  | 11.2 ± 0.3 µM | 16.5 ± 3.4 µM |  |  |  |  |  |  |
